{"source": "paper PMC9372074", "about": "“Biocatalytic routes to stereo-divergent iridoids” (Nature Communications, 2022)", "key": {"[1]": {"biological_target": "T1, NmNEPS1 (Nepeta racemosa, UniProt A0A3Q8GL18)", "T1 construct": "gene NEPS1", "details": "NADPH, 5 mM NAD+, pH 8, 30 °C"}, "[2]": {"biological_target": "T2, NmNEPS3 (Nepeta racemosa, UniProt A0A3Q8GLE8, Q206V)", "T2 construct": "gene NEPS3", "T2 sequence (A0A3Q8GLE8 whole entry Q206V)": "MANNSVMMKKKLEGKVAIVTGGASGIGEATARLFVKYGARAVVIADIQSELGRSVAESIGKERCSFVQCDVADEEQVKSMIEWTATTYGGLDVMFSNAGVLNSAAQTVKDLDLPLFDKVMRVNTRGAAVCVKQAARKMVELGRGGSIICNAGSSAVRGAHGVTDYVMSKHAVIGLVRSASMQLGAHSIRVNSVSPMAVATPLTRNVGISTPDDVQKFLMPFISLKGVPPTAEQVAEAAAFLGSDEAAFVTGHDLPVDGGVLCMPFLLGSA", "details": "nepetalactol formed in situ by the enzyme from ISY product; NADPH, 5 mM NAD+; pH 8, 30 °C"}, "[3]": {"biological_target": "T3, NmNEPS3 (Nepeta racemosa, UniProt A0A3Q8GLE8)", "T3 construct": "gene NEPS3", "details": "with 7S-ISY and 8-oxogeranial; pH 8, 30 °C; cyclization of 8-oxocitronellyl enol"}, "[4]": {"biological_target": "T4, NcNEPS3A (Nepeta cataria, UniProt A0A7D3QLP1, V206Q)", "T4 construct": "pOPINF, His-tagged; E. coli SoluBL21; Ni-NTA purified", "T4 sequence (A0A7D3QLP1 entry or part of it V206Q)": "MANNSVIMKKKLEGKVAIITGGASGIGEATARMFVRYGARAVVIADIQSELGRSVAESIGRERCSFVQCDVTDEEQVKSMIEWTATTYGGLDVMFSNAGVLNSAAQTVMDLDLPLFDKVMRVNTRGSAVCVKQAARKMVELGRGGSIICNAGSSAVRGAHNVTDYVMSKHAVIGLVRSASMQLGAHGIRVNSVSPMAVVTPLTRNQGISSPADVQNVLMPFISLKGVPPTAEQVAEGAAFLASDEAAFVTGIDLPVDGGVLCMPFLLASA", "assay": "end-point GC-MS coupled assay", "type": "biochemical", "details": "with 7S-ISY and 8-oxogeranial; NADPH, 5 mM NAD+; pH 8, 30 °C"}, "[5]": {"biological_target": "T5, NcNEPS3A (Nepeta cataria, UniProt A0A7D3QLP1)", "T5 construct": "pOPINF, His-tagged; E. coli SoluBL21; Ni-NTA purified", "T5 sequence (A0A7D3QLP1 entry or part of it)": "as the sequence (A0A7D3QLP1 entry or part of it V206Q) above, with Q206V counted along it", "assay": "end-point GC-MS coupled assay", "type": "biochemical", "details": "nepetalactol formed in situ by the enzyme from ISY product; NADPH, 5 mM NAD+; pH 8, 30 °C"}, "[6]": {"biological_target": "T6, NmNEPS4 (Nepeta racemosa, UniProt A0A7D3UJX6)", "T6 construct": "pOPINF, His-tagged; E. coli SoluBL21; Ni-NTA purified", "T6 sequence (A0A7D3UJX6 1-274)": "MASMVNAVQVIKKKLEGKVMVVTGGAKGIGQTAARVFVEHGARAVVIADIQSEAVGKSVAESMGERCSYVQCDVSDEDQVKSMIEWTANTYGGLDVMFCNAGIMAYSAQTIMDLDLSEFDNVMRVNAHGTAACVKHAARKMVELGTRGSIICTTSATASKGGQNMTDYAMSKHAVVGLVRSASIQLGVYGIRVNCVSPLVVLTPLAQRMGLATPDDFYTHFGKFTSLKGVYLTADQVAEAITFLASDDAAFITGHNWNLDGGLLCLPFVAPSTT", "assay": "end-point GC-MS coupled assay", "type": "biochemical", "details": "nepetalactol formed in situ with 7S-ISY; NADPH, 5 mM NAD+; pH 8, 30 °C"}}, "note": "Where two headings read alike, the source gives them in different places.", "data": [{"compound": "CC1=COC(O)[C@@H]2[C@@H]1CC[C@@H]2C", "note": "(stereo partly drawn) [3c, 7S-trans-cis nepetalactol]", "values": [{"measurement": "end-point GC-MS coupled assay", "setting": "[1]; nepetalactol formed in situ with 7S-ISY and cyclase", "value": "NmNEPS1 is able to oxidize both 3c and 7S-cis-trans nepetalactol 3a"}]}, {"compound": "CC1=COC(O)[C@H]2[C@@H](C)CC[C@@H]12", "note": "(stereo partly drawn) [3b, 7S-cis-cis nepetalactol]", "values": [{"measurement": "end-point GC-MS coupled assay", "setting": "[2]", "value": "NmNEPS3-Q206V mutant has restored oxidation activity"}, {"measurement": "end-point GC-MS coupled assay", "setting": "[3]", "value": "NmNEPS3 (N. mussinii), which produces 7S-cis-cis nepetalactol 3b"}, {"measurement": "end-point GC-MS coupled assay", "setting": "[4]", "value": "NcNEPS3A-V206Q produces only 3b"}, {"measurement": "end-point GC-MS coupled assay", "setting": "[5]", "value": "only NcNEPS3A can oxidize 7S-cis-cis nepetalactol 3b"}]}, {"compound": "CC1=COC(O)[C@H]2[C@@H]1CC[C@@H]2C", "note": "(stereo partly drawn) [3a, 7S-cis-trans nepetalactol]", "values": [{"measurement": "end-point GC-MS coupled assay", "setting": "[6]", "value": "NmNEPS4 can only oxidize 3a (Fig. 3A)"}, {"measurement": "end-point GC-MS coupled assay", "setting": "[1]; nepetalactol formed in situ with 7S-ISY", "value": "NmNEPS1 is able to oxidize both 3c and 7S-cis-trans nepetalactol 3a"}]}]}
